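Where inhibition never reached the appropriate level, the endpoint shown equals the highest concentration tested. Otherwise, values were interpolated linearly from a five-concentration, 48-hour dose response in 96-well plates. TGI: total growth inhibition.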
Columns and labels:
Test in all cases: NCI tumour cell line growth inhibition, 48 h
RXF 393 renal = tested on: RXF 393 renal
A498 renal = tested on: A498 renal
UACC-257 melanoma = tested on: UACC-257 melanoma
SK-OV-3 ovarian = tested on: SK-OV-3 ovarian
OVCAR-8 ovarian = tested on: OVCAR-8 ovarian
SNB-19 CNS = tested on: SNB-19 CNS
DMS 273 small cell lung = tested on: DMS 273 small cell lung
SNB-78 CNS = tested on: SNB-78 CNS
M19-MEL melanoma = tested on: M19-MEL melanoma
EKVX NSCLC = tested on: EKVX NSCLC
LOX IMVI melanoma = tested on: LOX IMVI melanoma
DLD-1 colon = tested on: DLD-1 colon
HOP-92 NSCLC = tested on: HOP-92 NSCLC
NCI/ADR-RES ovarian = tested on: NCI/ADR-RES ovarian
RPMI-8226 leukemia = tested on: RPMI-8226 leukemia
HCT-15 colon = tested on: HCT-15 colon
SK-MEL-2 melanoma = tested on: SK-MEL-2 melanoma
HT29 colon = tested on: HT29 colon
SNB-75 CNS = tested on: SNB-75 CNS
HOP-62 NSCLC = tested on: HOP-62 NSCLC
CCRF-CEM leukemia = tested on: CCRF-CEM leukemia
A549 NSCLC = tested on: A549 NSCLC
U251 CNS = tested on: U251 CNS
SF-268 CNS = tested on: SF-268 CNS
SW-620 colon = tested on: SW-620 colon
SF-295 CNS = tested on: SF-295 CNS
HOP-18 NSCLC = tested on: HOP-18 NSCLC
P388/ADR leukemia = tested on: P388/ADR leukemia
DMS 114 small cell lung = tested on: DMS 114 small cell lung
IGROV1 ovarian = tested on: IGROV1 ovarian
OVCAR-5 ovarian = tested on: OVCAR-5 ovarian
SF-539 CNS = tested on: SF-539 CNS
HCC-2998 colon = tested on: HCC-2998 colon
K-562 leukemia = tested on: K-562 leukemia
KM20L2 colon = tested on: KM20L2 colon
NCI-H226 lung = tested on: NCI-H226 lung
COLO 205 colon = tested on: COLO 205 colon
OVCAR-4 ovarian = tested on: OVCAR-4 ovarian
NCI-H23 lung = tested on: NCI-H23 lung
SK-MEL-5 melanoma = tested on: SK-MEL-5 melanoma
SN12K1 renal = tested on: SN12K1 renal
KM12 colon = tested on: KM12 colon
UACC-62 melanoma = tested on: UACC-62 melanoma
XF 498 CNS = tested on: XF 498 CNS
MCF7 breast = tested on: MCF7 breast
SK-MEL-28 melanoma = tested on: SK-MEL-28 melanoma
SN12C renal = tested on: SN12C renal
OVCAR-3 ovarian = tested on: OVCAR-3 ovarian
CAKI-1 renal = tested on: CAKI-1 renal
NCI-H522 lung = tested on: NCI-H522 lung
UO-31 renal = tested on: UO-31 renal
MOLT-4 leukemia = tested on: MOLT-4 leukemia
NCI-H460 lung = tested on: NCI-H460 lung
HCT-116 colon = tested on: HCT-116 colon
HL-60(TB) leukemia = tested on: HL-60(TB) leukemia
MALME-3M melanoma = tested on: MALME-3M melanoma
P388 leukemia = tested on: P388 leukemia

`O=C(O)CCC(NC(=O)c1ccc(Nc2nc3ccc(C(F)(F)F)cc3nc2-c2ccccc2)cc1)C(=O)O` (centres undefined) was tested, and the TGI (RXF 393 renal) was > 100 µM, the TGI (A498 renal) was > 100 µM and the TGI (UACC-257 melanoma) was > 100 µM. The TGI (SK-OV-3 ovarian) was > 100 µM, the TGI (OVCAR-8 ovarian) was > 100 µM and the TGI (SNB-19 CNS) was > 100 µM. For the same compound, the TGI (DMS 273 small cell lung) was > 100 µM, the TGI (SNB-78 CNS) was > 100 µM and the TGI (M19-MEL melanoma) was > 100 µM. The TGI (EKVX NSCLC) was > 100 µM, the TGI (LOX IMVI melanoma) was > 100 µM and the TGI (DLD-1 colon) was > 100 µM. The TGI (HOP-92 NSCLC) was > 100 µM, the TGI (NCI/ADR-RES ovarian) was > 100 µM and the TGI (RPMI-8226 leukemia) was > 100 µM. For the same compound, the TGI (HCT-15 colon) was > 100 µM, the TGI (SK-MEL-2 melanoma) was > 100 µM and the TGI (HT29 colon) was > 100 µM. For the same compound, the TGI (SNB-75 CNS) was > 100 µM, the TGI (HOP-62 NSCLC) was > 100 µM and the TGI (CCRF-CEM leukemia) was > 100 µM. The TGI (A549 NSCLC) was > 100 µM, the TGI (U251 CNS) was > 100 µM and the TGI (SF-268 CNS) was > 100 µM. The TGI (SW-620 colon) was > 100 µM, the TGI (SF-295 CNS) was > 100 µM and the TGI (HOP-18 NSCLC) was > 100 µM. The TGI (P388/ADR leukemia) was > 100 µM, the TGI (DMS 114 small cell lung) was > 100 µM and the TGI (IGROV1 ovarian) was > 100 µM. The TGI (OVCAR-5 ovarian) was > 100 µM, the TGI (SF-539 CNS) was > 100 µM and the TGI (HCC-2998 colon) was > 100 µM. The TGI (K-562 leukemia) was > 100 µM, the TGI (KM20L2 colon) was > 100 µM and the TGI (NCI-H226 lung) was > 100 µM. For the same compound, the TGI (COLO 205 colon) was > 100 µM, the TGI (OVCAR-4 ovarian) was > 100 µM and the TGI (NCI-H23 lung) was > 100 µM. For the same compound, the TGI (SK-MEL-5 melanoma) was > 100 µM, the TGI (SN12K1 renal) was > 100 µM and the TGI (KM12 colon) was > 100 µM. The TGI (UACC-62 melanoma) was > 100 µM, the TGI (XF 498 CNS) was > 100 µM and the TGI (MCF7 breast) was > 100 µM. For the same compound, the TGI (SK-MEL-28 melanoma) was > 100 µM, the TGI (SN12C renal) was > 100 µM and the TGI (OVCAR-3 ovarian) was > 100 µM. The TGI (CAKI-1 renal) was > 100 µM, the TGI (NCI-H522 lung) was > 100 µM and the TGI (UO-31 renal) was > 100 µM. The TGI (MOLT-4 leukemia) was > 100 µM, the TGI (NCI-H460 lung) was > 100 µM and the TGI (HCT-116 colon) was > 100 µM. For the same compound, the TGI (HL-60(TB) leukemia) was > 100 µM, the TGI (MALME-3M melanoma) was > 100 µM and the TGI (P388 leukemia) was > 100 µM.
`COC(=O)C(C/C=C(\C)c1ccccc1)C(C)=O` (centres undefined) was tested, and the TGI (RXF 393 renal) was > 100 µM, the TGI (A498 renal) was > 100 µM and the TGI (UACC-257 melanoma) was > 87.4 µM. The TGI (SK-OV-3 ovarian) was > 100 µM, the TGI (OVCAR-8 ovarian) was > 100 µM and the TGI (SNB-19 CNS) was > 100 µM. For the same compound, the TGI (DMS 273 small cell lung) was > 100 µM, the TGI (SNB-78 CNS) was > 100 µM and the TGI (M19-MEL melanoma) was > 100 µM. The TGI (EKVX NSCLC) was > 100 µM, the TGI (LOX IMVI melanoma) was > 100 µM and the TGI (DLD-1 colon) was > 100 µM. The TGI (HOP-92 NSCLC) was 98.3 µM, the TGI (NCI/ADR-RES ovarian) was > 100 µM and the TGI (RPMI-8226 leukemia) was > 100 µM. The TGI (HCT-15 colon) was > 100 µM, the TGI (SK-MEL-2 melanoma) was > 100 µM and the TGI (HT29 colon) was > 100 µM. The TGI (SNB-75 CNS) was > 100 µM, the TGI (HOP-62 NSCLC) was > 100 µM and the TGI (CCRF-CEM leukemia) was > 100 µM. The TGI (A549 NSCLC) was > 100 µM, the TGI (U251 CNS) was > 100 µM and the TGI (SF-268 CNS) was > 100 µM. The TGI (SW-620 colon) was > 100 µM, the TGI (SF-295 CNS) was > 100 µM and the TGI (HOP-18 NSCLC) was > 100 µM. The TGI (P388/ADR leukemia) was > 100 µM, the TGI (DMS 114 small cell lung) was > 95.9 µM and the TGI (IGROV1 ovarian) was > 100 µM. For the same compound, the TGI (OVCAR-5 ovarian) was > 100 µM, the TGI (SF-539 CNS) was > 100 µM and the TGI (HCC-2998 colon) was > 100 µM. The TGI (K-562 leukemia) was > 100 µM, the TGI (KM20L2 colon) was > 100 µM and the TGI (NCI-H226 lung) was > 100 µM. The TGI (COLO 205 colon) was > 100 µM, the TGI (OVCAR-4 ovarian) was > 100 µM and the TGI (NCI-H23 lung) was > 100 µM. The TGI (SK-MEL-5 melanoma) was > 100 µM, the TGI (SN12K1 renal) was > 82.8 µM and the TGI (KM12 colon) was > 100 µM. The TGI (UACC-62 melanoma) was > 100 µM, the TGI (XF 498 CNS) was > 100 µM and the TGI (MCF7 breast) was > 100 µM. The TGI (SK-MEL-28 melanoma) was > 100 µM, the TGI (SN12C renal) was > 100 µM and the TGI (OVCAR-3 ovarian) was > 100 µM. The TGI (NCI-H522 lung) was > 100 µM, the TGI (UO-31 renal) was > 100 µM and the TGI (MOLT-4 leukemia) was 51.6 µM. The TGI (NCI-H460 lung) was > 100 µM, the TGI (HCT-116 colon) was > 100 µM and the TGI (HL-60(TB) leukemia) was 53.6 µM. For the same compound, the TGI (MALME-3M melanoma) was > 100 µM and the TGI (P388 leukemia) was > 82.1 µM.
Compound `Cn1c(/C=C/CO)c(CO)c2c1C(=O)C=C(N1CC1)C2=O` has a TGI (RXF 393 renal) of 0.0112 µM, a TGI (A498 renal) of 0.0235 µM and a TGI (UACC-257 melanoma) of 0.018 µM. It also gave a TGI (SK-OV-3 ovarian) of 0.0855 µM, a TGI (OVCAR-8 ovarian) of 0.0936 µM and a TGI (SNB-19 CNS) of 0.0369 µM. The TGI (DMS 273 small cell lung) was < 0.0107 µM, the TGI (SNB-78 CNS) was 7.21 µM and the TGI (M19-MEL melanoma) was < 0.011 µM. It also gave a TGI (EKVX NSCLC) of 0.178 µM, a TGI (LOX IMVI melanoma) of 0.0102 µM and a TGI (DLD-1 colon) of 0.662 µM. The TGI (HOP-92 NSCLC) was 0.488 µM, the TGI (NCI/ADR-RES ovarian) was 0.0346 µM and the TGI (RPMI-8226 leukemia) was 0.0805 µM. The TGI (HCT-15 colon) was < 0.0159 µM, the TGI (SK-MEL-2 melanoma) was < 0.01 µM and the TGI (HT29 colon) was 0.0534 µM. The TGI (SNB-75 CNS) was < 0.0124 µM, the TGI (HOP-62 NSCLC) was < 0.0139 µM and the TGI (CCRF-CEM leukemia) was 23.9 µM. For the same compound, the TGI (A549 NSCLC) was < 0.01 µM, the TGI (U251 CNS) was 0.0101 µM and the TGI (SF-268 CNS) was 0.0379 µM. For the same compound, the TGI (SW-620 colon) was 0.104 µM, the TGI (SF-295 CNS) was < 0.01 µM and the TGI (HOP-18 NSCLC) was < 0.01 µM. For the same compound, the TGI (P388/ADR leukemia) was 3.91 µM, the TGI (DMS 114 small cell lung) was 0.0153 µM and the TGI (IGROV1 ovarian) was 0.197 µM. For the same compound, the TGI (OVCAR-5 ovarian) was < 0.0273 µM, the TGI (SF-539 CNS) was < 0.0163 µM and the TGI (HCC-2998 colon) was 0.0203 µM. For the same compound, the TGI (K-562 leukemia) was 0.378 µM, the TGI (KM20L2 colon) was 0.0639 µM and the TGI (NCI-H226 lung) was 0.0602 µM. The TGI (COLO 205 colon) was 0.0236 µM, the TGI (OVCAR-4 ovarian) was 0.223 µM and the TGI (SK-MEL-5 melanoma) was < 0.015 µM. The TGI (SN12K1 renal) was 0.0224 µM, the TGI (KM12 colon) was 0.0172 µM and the TGI (UACC-62 melanoma) was < 0.0115 µM. It also gave a TGI (XF 498 CNS) of 0.0171 µM, a TGI (MCF7 breast) of 0.0156 µM and a TGI (SK-MEL-28 melanoma) of 0.202 µM. For the same compound, the TGI (SN12C renal) was 0.0253 µM, the TGI (OVCAR-3 ovarian) was 0.0561 µM and the TGI (CAKI-1 renal) was 0.0588 µM. The TGI (NCI-H522 lung) was < 0.018 µM, the TGI (UO-31 renal) was < 0.01 µM and the TGI (MOLT-4 leukemia) was 4.15 µM. For the same compound, the TGI (NCI-H460 lung) was < 0.01 µM, the TGI (HCT-116 colon) was 1.02 µM and the TGI (HL-60(TB) leukemia) was 0.682 µM. For the same compound, the TGI (MALME-3M melanoma) was 0.024 µM and the TGI (P388 leukemia) was 4.9 µM.
